Laboratory results from patent US7090863B2, “Hypocholesterolemic composition and methods of use” (Inpharma S.A., priority 2001, dated 2006).

Tested on: normocholesterolemic healthy male subjects
Assay: Example 1 first phase: plasma lipoprotein variations after 15 days of soy bean proteins, β-sitosterol or their combination
Type: in vivo, human
Details: in rapport to post-seven days of stabilisation diet values
From the text: For the first phase, 18 normocholesterolemic healthy male subjects (mean age: 32.5±8 years) have been enrolled. All subjects followed a stabilisation diet period of seven days during which they received some advises concerning their nourishment (according to the American Heart Association recommends), without any radical modification of their diet customs. A dietician monitored the patient dietary pattern trough the “Seven days questionnaire” for all the experimental duration. Patients were imposed to stop any nutritional supplementation. After this period, all subjects ingested for fifteen days 400 mg β-sitosterol two times/day (6 subjects), 1600 mg soy bean proteins two times/day (6 subjects) or a low dosage product containing soy proteins supplemented in β-sitosterol in a rapport 4:1 (offered and patented by Inpharma SA, Lugano, Switzerland), 2 g two times/day (6 subjects).
The hematochemistry measurements have been carried out on venous blood coming from antecubital harm vein, after 12 fasting hours after the stabilisation diet period and at the end. Blood has been collected into tubes […] heparin or other anticoagulant, plasma was immediately separated by high-speed centrifugation at 3500×g for twenty minutes. TC, HDL-C, TG, Glucose, and Uric acid have been determined with standardised enzymatic […] methods (Gaddi et al., 2001). LDL-C plasma level has been estimated with the Friedewald's formula [LDL-C=TC-(TG/5+HDL-C)], for TG<350 mg/dL.
Data have been sampled in a specific database and analysed with the help of the SPSS 8.0 statistical software. A normality Shapiro-Wilks test has been carried out on all the tested variables, followed by ANOVA and two-tails t-test for paired samples, when possible, and by a post-hoc Tukey's test. Percentages have been compared with the Fisher's exact test. Correlation degree between baseline plasma lipid levels and reduction obtained with the treatment were estimated with a Pearson's bivariate correlation test followed by linear regression. For all tests a “p” level less than 0.05 has been considered as significant.

Q: What does the source list for `CC[C@H](CC[C@@H](C)[C@H]1CC[C@H]2[C@@H]3CC=C4C[C@@H](O)CC[C@]4(C)[C@H]3CC[C@]12C)C(C)C` [β-sitosterol]?
A: Apolipoprotein Al variation: −0.1%; Apolipoprotein B variation: −0.3%; High Density Lipoproteins variation: +0.3%; Low Density Lipoproteins variation: −4.9%; Total Cholesterol variation: −3.2%; Tryglycerides variation: −0.1%; Very Low Density Lipoproteins variation: −0.2%
